# Source: US8026359B2, “Fungicidal heterocyclic amines” (E.I. du Pont de Nemours and Company, priority 2007, dated 2011)
# Marks after values point to notes of the source that are not given here.
# How the values were obtained:
# Assay type in all cases: in vivo
# [1] = test system: Erysiphe graminis f. sp. tritici; experiment: Test A: wheat powdery mildew, preventive spray on wheat seedlings; conditions: for pest or weed control at 200 ppm: Blumeria graminis, 192 h, read-out: Test A disease control rating
# Method in brief: (§1)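 Test plants received run-off sprays of 200 ppm suspension (500 g/ha equivalent) or 40 ppm suspension. These suspensions were made by first dissolving each compound in acetone, then suspending it in an equal acetone/water mix carrying 250 ppm Trem 014.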
# [2] = test system: Puccinia recondita f. sp. tritici; experiment: Test B: wheat leaf rust, preventive spray on wheat seedlings; conditions: 200 ppm, 100 = 100% disease control, 0 = no control relative to controls; for pest or weed control at 200 ppm: Puccinia recondita, 192 h, read-out: Test B disease control rating
# Method in brief: as §1
# [3] = test system: Septoria nodorum; experiment: Test C: wheat glume blotch, preventive spray on wheat seedlings; conditions: 200 ppm, 100 = 100% disease control, 0 = no control relative to controls; for pest or weed control at 200 ppm: Parastagonospora nodorum, 216 h, read-out: Test C disease control rating
# Method in brief: as §1
# [4] = test system: Septoria tritici; experiment: Test D: wheat leaf blotch, preventive spray on wheat seedlings; conditions: 200 ppm, 100 = 100% disease control, 0 = no control relative to controls; for pest or weed control at 200 ppm: Zymoseptoria tritici, 504 h, read-out: Test D disease control rating
# Method in brief: as §1
# [5] = test system: Fusarium graminearum; experiment: whole plant or invertebrate; conditions: for pest or weed control at 200 ppm: Fusarium graminearum, in Triticum aestivum, 192 h, read-out: Test E disease control rating; for Test E disease control rating: 200 ppm, 100 = 100% disease control, 0 = no control relative to controls
# [6] = test system: Botrytis cinerea; experiment: Test F: tomato Botrytis, preventive spray on tomato seedlings; conditions: 200 ppm, 100 = 100% disease control, 0 = no control relative to controls; for pest or weed control at 200 ppm: Botrytis cinerea, 120 h, read-out: Test F disease control rating
# Method in brief: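 Preventive run-off spray onto tomato seedlings at 200 ppm (equivalent to 500 g/ha) or 40 ppm. Suspensions: compound predissolved in acetone at 3% of final volume, then taken up in acetone/purified water 50/50 containing 250 ppm Trem® 014 surfactant.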
# [7] = test system: Colletotrichum orbiculare; experiment: Test I: cucumber Colletotrichum anthracnose, preventive spray on cucumber seedlings; conditions: 100 = 100% disease control, 0 = no control relative to controls; for pest or weed control at 200 ppm: Colletotrichum orbiculare, 144 h, read-out: Test I disease control rating; for Test I disease control rating: 200 ppm
# Method in brief: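 Preventive foliar spray to run-off on cucumber seedlings, at 200 ppm (stated as equal to 500 g/ha) or 40 ppm. Test suspensions were made in acetone/water 50/50 containing 250 ppm Trem 014, after first dissolving compound in acetone at 3% of final volume.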
# [8] = test system: Uncinula necator; experiment: Test N: grape powdery mildew, preventive spray on grape seedlings; conditions: 100 ppm (100 g/ha, 1000 L/ha), inoculated the following day, 100 = 100% disease control, 0 = no control relative to controls
# Source text: (§2) General protocol for preparing test suspensions for Tests A-R: The test compounds were first dissolved in acetone in an amount equal to 3% of the final volume and then suspended at the desired concentration (in ppm) in acetone and purified water (50/50 mix) containing 250 ppm of the surfactant Trem® 014 (polyhydric alcohol esters). The resulting test suspensions were then used in tests A-R. In Tests A-M, compounds were sprayed as a 200 ppm test suspension (equivalent to a rate of 500 g/ha) or as a 40 ppm test suspension to the point of runoff on the test plants. In Tests N-R, compounds were sprayed as a 100 g/ha test suspension (equivalent to a rate of 100 ppm) on the test plants at an application volume of 1000 L/ha. The test suspension was sprayed on grape seedlings.
# [9] = test system: Venturia inaequalis; experiment: Test O: apple scab, preventive spray on apple seedlings; conditions: 100 ppm (100 g/ha, 1000 L/ha), inoculated the following day, 100 = 100% disease control, 0 = no control relative to controls
# Source text: as §2, with “apple” for “grape”
# [10] = test system: Plasmopara viticola; experiment: Test R: grape downy mildew, preventive spray on grape seedlings; conditions: 100 ppm (100 g/ha, 1000 L/ha), inoculated the following day, 100 = 100% disease control, 0 = no control relative to controls
# Source text: as §2, with “seedlings. The following day the seedlings were inoculated with a spore suspension of Plasmopara viticola (the causal agent of grape downy mildew) and incubated in a saturated atmosphere at 20° C. for 24 h, then moved to a growth chamber at 20° C. for 7 days, after which time the test units were placed back into a saturated atmosphere at 20° C. for 24 h. Upon removal, disease ratings were made.” for “seedlings.”
# [11] = test system: Alternaria solani; experiment: Test H: tomato early blight, preventive spray on seedlings
# Method in brief: as §1
# [12] = test system: Rhizoctonia oryzae; experiment: Test P: rice sheath blight, preventive spray on rice seedlings; conditions: 100 ppm (100 g/ha, 1000 L/ha), inoculated the following day, 100 = 100% disease control, 0 = no control relative to controls
# Source text: as §2, with “rice” for “grape”
# [13] = test system: Magnaporthe grisea; conditions: 100 ppm (100 g/ha, 1000 L/ha), rice seedlings, inoculated the following day; 100 = 100% disease control, 0 = no control relative to controls
# [14] = 200 ppm, 100 = 100% disease control, 0 = no control relative to controls
Compound,Test N disease control rating [8],Test O disease control rating [9],Test R disease control rating [10],Test B disease control rating [2],Test C disease control rating [3],Test D disease control rating [4],Test E disease control rating [5],Test F disease control rating [6],"Test H disease control rating [11, 14]",Test I disease control rating [7],also measured
"COCC(C)Nc1nccc(-c2ncnc(Nc3cccc(Cl)c3)n2)n1 (centres unmarked) [Compound 1, N-(3-chlorophenyl)-4-[2-[(2-methoxy-1-methylethyl)amino]-4-pyrimidinyl]-1,3,5-triazine-2-amine]",90%,78%,26%,,,,,,,,"pest or weed control at 200 ppm [1, 14]: 76%; pest or weed control at 200 ppm [2]: 96%; pest or weed control at 200 ppm [3]: 100%; pest or weed control at 200 ppm [4]: 0%; pest or weed control at 200 ppm [5]: 98%; pest or weed control at 200 ppm [6]: 98%; pest or weed control at 200 ppm [7]: 99%"
COC[C@H](C)Nc1nccc(-c2ncnc(Nc3cccc(Br)c3)n2)n1 [Compound 11],85%,92%,27%,96%,100%,0%,99%,96%,98%,,
COC[C@H](C)Nc1nccc(-c2ncnc(Nc3cccc(Cl)c3)n2)n1 [Compound 16],99%,76%,40%,99%,99%,71%,99%,96%,98%,97%,
COC[C@H](C)Nc1nccc(-c2ncnc(Nc3cccc(C)c3)n2)n1 [Compound 19],95%,33%,73%,97%,100%,87%,97%,99%,93%,99%,
COC[C@H](C)Nc1nccc(-c2ncnc(Nc3cccc([N+](=O)[O-])c3)n2)n1 [Compound 21],57%,99%,79%,99%,97%,13%,87%,72%,,96%,
COC[C@H](C)Nc1nccc(-c2ncnc(Nc3ccc(F)c(Cl)c3)n2)n1 [Compound 23],61%,99%,30%,98%,100%,13%,98%,90%,,99%,Test A disease control rating ([1]; 40 ppm (marked *)): 0* %; Test H disease control rating ([11]; 40 ppm (marked *)): 100* %
COC[C@H](C)Nc1nccc(-c2ncnc(Nc3ccc(C)c(F)c3)n2)n1 [Compound 25],99%,59%,86%,99%,100%,16%,99%,63%,99%,,
COC[C@H](C)Nc1nccc(-c2ncnc(Nc3ccc(C)c([N+](=O)[O-])c3)n2)n1 [Compound 26],69%,96%,96%,98%,100%,2%,98%,17%,91%,,
COC[C@H](C)Nc1nccc(-c2ccnc(Nc3cccc(F)c3)c2)n1 [Compound 56],64%,75%,97%,99%,99%,82%,90%,99%,,90%,"Test A disease control rating [1, 14]: 84%; Test P disease control rating [12]: 100%; Test Q disease control rating [13]: 98%"
"Fc1cccc(Nc2cc(-c3ccnc(NC4CCOCC4)n3)ccn2)c1 [Compound 67, 4-[2-[(3-fluorophenyl)amino]-4-pyridinyl]-N-(tetrahydro-2H-pyran-4-yl)-2-pyrimidinamine]",55%,73%,94%,,,,,,,,"pest or weed control at 200 ppm [1, 14]: 17%; pest or weed control at 200 ppm [2]: 97%; pest or weed control at 200 ppm [3]: 99%; pest or weed control at 200 ppm [4]: 52%; pest or weed control at 200 ppm [5]: 0%; pest or weed control at 200 ppm [6]: 95%; pest or weed control at 200 ppm [7]: 79%"
Clc1cccc(Cl)c1Nc1cc(-c2ccnc(NC3CCOCC3)n2)ccn1 [Compound 81],97%,69%,97%,100%,99%,92%,97%,99%,,91%,"Test A disease control rating [1, 14]: 95%"
Clc1cc(Cl)c(Nc2cc(-c3ccnc(NC4CCOCC4)n3)ccn2)c(Cl)c1 [Compound 99],30%,83%,99%,95%,100%,30%,92%,0%,,0%,"Test A disease control rating [1, 14]: 0%"
